From patent publication US20020055174A1, “Complex for transferring an anionic substance of interest into a cell” (priority 2000, published 2002)
Entries after “also recorded” stand apart in the source; their conditions may differ. Bridge positions count the residues as written; N and C are the ends. Ends that are not written are not given here.

How the values were obtained:
HeLa cells = assay: Transfection in vitro, luciferase plasmid pTG11236; type: cell-based; conditions: for transfection / gene transfer efficiency in vitro, in words: HeLa cells, 50 ng pTG11236, increasing charge ratios, day 1
Procedure: Cells were plated on 24 well plates at a density of 4×10^4 (293-EBNA ) or 7×10^4 (HeLa, Renca) cells/well in DMEM supplemented with 10% FCS. The next day, the medium was replaced by 200 μl serum-free DMEM and plasmid (pTG11056 or pTG11236)/peptide complexes or plasmid/peptide/lipid complexes were prepared in 30 μl 0.9% NaCl or 5% glucose. After 20 min at room temperature these complexes were added to the cells which were then incubated for 2-3 h at 37° C. and 5% CO2 before 1 ml serum-containing DMEM was added. Approximately 20-hours later, cells were lysed by addition of 100 μl 1× Promega lysis buffer, 20 μl of the lysates were analysed for luciferase activity. Proteins were quantified with the bicinchonic acid (BCA) colorimetric method (Smith, Anal. Biochem. 150 (1985), 76-85).
In another experiment, 7×10^4 HeLa cells, seeded on 24-well plates the day before transfection, were transfected with 0.5 μg or 0.05 μg pTG11236, complexed with Lipofectin or ppTG1. The plasmid/peptide complexes were prepared in 30 μl of 5% glucose or 0.9% NaCl and added to the cells (200 μl serum-free medium) after 20 min at room temperature. Serum-containing medium was added after 3 h, the cells were harvested the next day.
A comparison of the effect on transfection efficiency of ppTG1 and JTS-1-K13 was carried out in HeLa cells. Complexes of 0.5 μg or 0.05 μg pTG11236 were formed with increasing amounts the respective peptide.
A comparison of ppTG1 and KALA was carried out in HeLa and CHO cells. 5×10^4 cells were seeded on 24 well plates. The next day, cells were transfected with 500 ng and 50 ng of pTG11236, complexed with ppTG1 or KALA in 30 μl 0.9% NaCl. The charge ratio +/− varied from 1, 2, 3, 4, 7 to 10. Cells were harvested 20 h after transfection and lysis was obtained in 100 μl Promega lysis buffer. Luciferase activity and total protein concentrations in 20 μl were determined.
HeLa cells were seeded at a density of 6×10^4 cells on 24 well plates. The next day, cells were incubated with 200 μl serum-free medium, 30 μl of plasmid (50 ng)/peptide/lipid mixtures were added and incubated for 3 h at 37° C. in 5% CO2. 1 ml of DMEM+10% FCS was then added. The next day, the medium was removed and cells were washed with 500 μl of PBS and subsequently treated with 100 μl of Promega lysis buffer. Plates were stored at −80° C. until luciferase activity was measured of 20 μl of the cell lysate. The protein assay was performed using the Pierce BCA kit.
JTS1 was dissolved to 1 mg/ml in 1 mM NaOH and mixed with DNA diluted in 5% glucose. ppTG1 was then added to this solution. The pcTG90/DOPE ppTG1 mixtures were prepared as described in Example 6. Transfection assays were performed on HeLa cells with 50 ng of plasmid as described in Example 6.
The series of ppTG1 derivatives listed in Material and Methods were tested for their gene transfer efficiencies in Hela cells. 6×10^4 cells were transfected with 50 ng pTG11236 complexed with increasing amounts of peptide. Luciferase activity was analyzed day 1 after transfection. The results are shown in FIG. 10B (ppTG20, ppTG21), FIG. 10C(ppTG25, ppTG26, ppTG27), FIG. 10D (ppTG28 to ppTG33), FIG. 10E (PEG-ppTG1 and PEG-ppTG20), FIG. 10F (ppTG22 to ppTG24) and FIG. 10G (ppTG20-D).

B6SJL mice = conditions: for gene transfer efficiency in the lung, in words: i.v., 50 or 60 μg pTG11236, day 1
Procedure: Indicated amounts of the luciferase expression plasmid pTG11236 were mixed with ppTG1 and /or pcTG90/DOPE. The resulting formulations were injected intramuscularly(30 μl), intravenously(250 μl) into mice or intratumorally (Renca tumors, 100 μgl). Muscles, tumors or organs were recovered at the indicated points of time, macerated and tested for luciferase activity with the luciferase assay kit from Promega.
60 μg or 30 μg of the plasmid pTG11236 were mixed with peptide ppTG1 and/or with a pcTG90/DOPE 1:2 mixture in 250 μl 5% glucose. After 20 min incubation at room temperature, the complexes were intravenously injected into B6SJL mice. Mice were sacrificed at day 1. The lungs were recovered, total protein was extracted and luciferase activity was analysed.
The potential of gene transfer with mono-component peptide vectors was investigated in vivo. Fifty or sixty μg of the luciferase expression plasmid pTG11236 were complexed with pcTG90/DOPE (1:2) [+/−] 10 in 250 μl 5% glucose (Meyer et al. 2000). The resulting lipoplex vector served as reference for gene transfer studies with pTG11236 complexed with ppTG1, ppTG20 and ppTG32 in 250 μl 5% glucose. Five mice per group were intravenously injected, the animals were sacrificed at day 1 after injection. Lungs were tested for luciferase activity.

[1] = Liposome leakage assay, POPC/cholesterol 3:2 liposomes; conditions: POPC/chol 3:2 liposomes
Procedure: Increasing amounts of the indicated peptides were incubated with POPC/Cholesterol (3:2 mol/mol) liposomes for 30 min at RT. Emitted fluorescence was plotted against peptide concentration. […] B) Liposome leakage activity with complexes of ppTG1 and the plasmid pTG11236 at pH7.
1-Palmitoyl-2-Oleoyl-phosphatidylcholine (POPC) liposomes were prepared by the repeated freeze-thaw method followed by extrusion (Olson et al., 1979, Biochim. Biophys. Acta 557, 19-23). Ten μ-moles of POPC in chloroform were placed in a glass tube and solvent was evaporated under reduced pressure using a Labconco Rapidvap vortex evaporator (Uniequip, Germany). The resulting lipid film was hydrated with 0.5 ml of an aqueous solution of calcein (lOOmM calcein, 3.75 eq. NaOH, 50mM NaCl). The lipid suspension was sonicated until the solution became clear using a sonic water bath (Bransonic 221, Branson Ultrasonics Corp., USA). Five cycles of freeze-thaw were performed before liposomes were extruded by 4 passages through 200 nm pore diameter polycarbonate membranes (Nuclepore, Costar, Mass., USA). Free calcein was removed from calcein encapsulated into liposomes by gel exclusion chromatography using a Sephadex G-50 column (3 cm×14 cm) and a 200 mM NaCl, 25 mM HEPES, pH 7.3 solution as the elution buffer. The final lipid concentration was determined by a phosphorus assay (Bartlett, 1959, J. Biol. Chem. 234, 466-469). Liposomes' diameter was determined by dynamic laser light scattering using a Coulter N4 Plus submicron particle sizer (Coultronics France S. A, France). Measurements were performed within a 3 nm-10000 nm size window with a fixed 90° scattered light angle.
The liposome leakage assay was carried out as described in Planck et al. (1994, J. Biol. Chem. 269, 12918-12924). The liposome stock solution was diluted to a lipid concentration of 45 μM in 1.8× assay buffer (360 mM NaCl, 36 mM sodium citrate, pH 5 and pH 7). A 1:5 serial dilution of the tested peptide was carried out in a 96-well microtiter plate by transferring 20 μl of the peptide solution from one well to the next well and diluting with 80 μl H2O. 100 μl of the liposome solution was added in each well (final lipid concentration: 25 μM) and, after 30 min at room temperature, was assayed for fluorescence at 535 nm (excitation: 485 nm) on a microtiter plate fluorescence spectrometer (WALLAC, 1420 multilabel counter Victor). These conditions are appropriate to analyze fluorescein and as close as possible to the appropriate excitation/ emission profile of calcein (495 nm /515 nm). The value for 100% leakage was obtained by addition of 1 μl of a 10% Triton X-100 solution. Leakage activity was plotted against peptide concentration.
Liposome leakage activities were analyzed on liposomes consisting of POPC and cholesterol at a molar ratio of 3:2 (mol/mol).
Complexes of ppTG1 with plasmid DNA pTG11236 were tested for liposome leakage activity on POPC/chol 3:2 liposomes.
The series of ppTG1 derivatives as they are listed in Materials and Methods was tested for liposome leakage activity on POPC/chol 3:2 liposomes at pH7.

plasmid pTG11236 = assay: Gel retardation assay (DNA binding)
Procedure: 3μg of the plasmid pTG11236 were incubated with increasing amounts of the respective peptide in a final volume of 30 μl with 0.9% NaCl. After 20 min of incubation at room temperature, 6 μl 5× loading buffer (glycerol and bromphenol blue in TAE buffer) were added and 10 μl of these solutions were analyzed on a 1% agarose gel in the presence of ethidium bromide.
The ability of ppTG1 peptide to complex DNA was analyzed by gel retardation assays. […] After 20 minutes incubation at room temperature, loading buffer was added and 10 μl of the resulting solution were analyzed on a 1% agarose gel.
ppTG1 derivatives as they are indicated in Materials and Methods, were tested for their capacity to bind plasmid DNA by gel retardation assays.

[2] = pH 5 vs pH 7; cited from earlier work

With “WEAKLAKALAKALAKHLAKALAKALKACEA [reference compound]” the “gene transfer at optimal charge ratio lower than for ppTG1” value (HeLa cells; HeLa, 500 ng pTG11236) was 4 fold, the “gene transfer efficiency in the lung, in words” value (B6SJL mice) was “undetectable; also recorded: inefficient” and the “liposome leakage activity, in words” value ([1]; pH5) was “could not liberate calcein”. The “liposome leakage activity, in words” value ([1]; pH7) was “could not liberate calcein”.

With GVFRAVVRVVRSVWRVVVRA [ppTG33] the “transfection / gene transfer efficiency in vitro, in words” value (from here on “transfection / gene transfer efficiency”) (HeLa cells) was “diminished gene transfer efficiency in vitro” and the “liposome leakage activity, in words” value ([1]; pH7) was “diminished liposome leakage activity; also recorded: significantly reduced liposome leakage activity”.

With “Gly-Leu-Phe-Arg-Ala-Leu-Leu-Arg-Leu-Leu-Arg-Ser-Leu-Trp-Arg-Leu-Leu-Leu-Arg-Ala (GLFRALLRLLRSLWRLLLRA; also: D-amino acids, places not given here) [ppTG20-D]” the “transfection / gene transfer efficiency” value (HeLa cells) was “retained; also recorded: as efficient as ppTG1” and the “liposome leakage activity, in words” value ([1]; pH7) was “retained”.

With CGLFKALLKLLKSLWKLLLKA [ppTG23] the “liposome leakage activity, in words” value ([1]; pH7) was “slightly reduced membrane destruction”.

In the case of GLFHALLHLLHSLWHLLLHA, the “DNA binding, in words” value (plasmid pTG11236; pH5) is reported as “binds plasmid DNA at pH5; also recorded: can bind DNA at pH5”, the “transfection / gene transfer efficiency” value (HeLa cells) is reported as “strongly reduced” and the “liposome leakage activity, in words” value ([1]; pH7) is reported as “comparable to ppTG1”.

With GLFRRLLRLLRRLWRLLLRA [ppTG29] the “transfection / gene transfer efficiency” value (HeLa cells) was “comparable to ppTG1 and ppTG20; also recorded: did not change transfection efficiencies” and the “liposome leakage activity, in words” value ([1]; pH7) was “slightly reduced liposome leakage activity”.

With GLFRALLRLLRSLWRLLLRA [ppTG20] the “toxicity in vivo, in words” value (B6SJL mice; i.v. injection of peptide/pTG11236 complexes) was “less toxic than ppTG1”.

In the case of “GLFEALLELLESLWELLLEA [reference compound]”, the “retardation of plasmid DNA” value (plasmid pTG11236; 3 μg pTG11236 and 0.1 μg to 10 μg peptide) is given as “not observed”, the “lysis of calcein containing phosphatidylcholine liposomes” value [2] is given as “capable of lysing calcein containing phosphatidylcholine liposomes at pH 5, more efficiently than at a pH 7” and the “liposome leakage activity, in words” value ([1]; pH5) is given as “high lysis activity”. The “liposome leakage activity, in words” value ([1]; pH7) was “reduced”.

With GVFKAVVKVVKSVWKVVVKA [ppTG32] the “transfection / gene transfer efficiency” value (HeLa cells) was “diminished gene transfer efficiency in vitro”, the “gene transfer efficiency in the lung, in words” value (B6SJL mice) was “drastically reduced gene transfer efficiency; also recorded: did not lead to detectable reporter gene expression” and the “liposome leakage activity, in words” value ([1]; pH7) was “diminished liposome leakage activity; also recorded: significantly reduced liposome leakage activity”.

With “Gly-Leu-Phe-Glu-Ala-Leu-Leu-Glu-Leu-Leu-Glu-Ser-Leu-Trp-Glu-Leu-Leu-Leu-Glu-Ala-Cys-Cys-Tyr-Lys-Ala-Lys-Lys-Lys-Lys-Lys-Lys-Lys-Lys--Trp-Lys-Lys-Lys-Lys-Gln-Ser (GLFEALLELLESLWELLLEACCYKAKKKKKKKKWKKKKQS; disulfide 21-22) [JTS-1-K13, reference compound]” the transfection (HeLa cells; 0.05 μg plasmid DNA, FIG. 4) was “remains low”, the luciferase expression (HeLa cells; 0.5 μg pTG11236 complexed with 1.5 μg peptide) was “high level of luciferase expression” and the “gene transfer efficiency in the lung, in words” value (B6SJL mice) was “low”. The “liposome leakage activity, in words” value ([1]; pH5) was “low level release” and the “liposome leakage activity, in words” value ([1]; pH7) was “impeded in calcein release”.

With GIFRAIIRIIRSIWRIIIRA [ppTG31] the “transfection / gene transfer efficiency” value (HeLa cells) was “diminished gene transfer efficiency in vitro; also recorded: reduced the efficiency of gene transfer” and the “liposome leakage activity, in words” value ([1]; pH7) was “slightly reduced liposome leakage activity”.

With “CGLFKALLKLLKSLWKLLLKAC (cysteine pairing not given here) [ppTG24]” the “liposome leakage activity, in words” value ([1]; pH7) was “slightly reduced membrane destruction”.

For GIFKAIIKIIKSIWKIIIKA [ppTG30], the “transfection / gene transfer efficiency” value (HeLa cells) was “diminished gene transfer efficiency in vitro; also recorded: reduced the efficiency of gene transfer”.

In the case of GLFKKLLKLLKKLWKLLLKA [ppTG28], the “transfection / gene transfer efficiency” value (HeLa cells) is reported as “comparable to ppTG1 and ppTG20; also recorded: did not change transfection efficiencies” and the “liposome leakage activity, in words” value ([1]; pH7) is reported as “slightly reduced liposome leakage activity”.
